Assay results taken from patent publication US9539243B2, “Triazole compounds that modulate HSP90 activity” (Synta Pharmaceuticals Corp., priority 2008, dated 2017).

System: Her2
Test: Her2 degradation in BT-474 cells by Western blot (Method 1)
Format: cell-based, Human
Conditions: 0.5 μM, overnight
Procedure: Human high-Her2 breast carcinoma BT474 (HTB-20), SK-BR-3 (HTB-30) and MCF-7 breast carcinoma (HTB-22) from American Type Culture Collection, Va., USA were grown in Dulbecco's modified Eagle's medium with 4 mM L-glutamine and antibiotics (100 IU/ml penicillin and 100 μg/ml streptomycine; GibcoBRL). To obtain exponential cell growth, cells were trypsinized, counted and seeded at a cell density of 0.5×10^6 cells/ml regularly, every 3 days. All experiments were performed on day 1 after cell passage.
BT-474 cells are treated with 0.5 μM, 2 μM, or 5 μM of 17AAG (a positive control) or 0.5 μM, 2 μM, or 5 μM of a compound of the invention overnight in DMEM medium. After treatment, each cytoplasmic sample is prepared from 1×10^6 cells by incubation of cell lysis buffer (#9803, Cell Signaling Technology) on ice for 10 minutes. The resulting supernatant used as the cytosol fractions is dissolved with sample buffer for SDS-PAGE and run on a SDS-PAGE gel, blotted onto a nitrocellulose membrane by using semi-dry transfer. Non-specific binding to nitrocellulose is blocked with 5% skim milk in TBS with 0.5% Tween at room temperature for 1 hour, then probed with anti-Her2/ErB2 mAb (rabbit IgG, #2242, Cell Signaling) and anti-Tubulin (T9026, Sigma) as housekeeping control protein. […]

For `C=CCNC1=C2C[C@@H](C)C[C@H](OC)[C@H](O)[C@@H](C)/C=C(\C)[C@H](OC(N)=O)[C@@H](OC)/C=C\C=C(/C)C(=O)NC(=CC1=O)C2=O` [Compound 17AAG, 17-allylamino-17-demethoxygeldanamycin], the “degradation of Her2” value was “partial degradation of Her2”.
